{
  "source": "patent US20220387602A1",
  "about": "“BIFUNCTIONAL DEGRADERS AND THEIR METHODS OF USE” (NOVARTIS AG, priority 2019, published 2022)",
  "key": {"CRBN": {"biological_target": "CRBN (Homo sapiens, UniProt Q96SW2)", "sequence (Q96SW2 whole entry)": "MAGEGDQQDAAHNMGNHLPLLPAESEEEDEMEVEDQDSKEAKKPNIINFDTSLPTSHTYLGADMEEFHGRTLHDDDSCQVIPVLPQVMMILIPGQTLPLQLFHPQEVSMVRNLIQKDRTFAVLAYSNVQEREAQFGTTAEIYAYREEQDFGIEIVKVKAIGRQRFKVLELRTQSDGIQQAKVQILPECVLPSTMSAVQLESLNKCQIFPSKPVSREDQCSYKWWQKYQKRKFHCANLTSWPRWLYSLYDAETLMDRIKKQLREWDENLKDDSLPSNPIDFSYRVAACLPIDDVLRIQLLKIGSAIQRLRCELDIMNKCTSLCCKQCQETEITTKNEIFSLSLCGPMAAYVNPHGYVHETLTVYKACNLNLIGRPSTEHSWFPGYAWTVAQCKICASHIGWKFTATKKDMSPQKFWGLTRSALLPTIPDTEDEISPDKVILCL", "assay": "CRBN displacement assay Format 1 (fluorescence polarization, BodipyFL-lenalidomide probe Compound HH)", "format": "binding", "how_it_was_run": "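Fluorescence polarization competition: CRBN (nominal 100 nM final) pre-incubated 45 min at room temperature with compound, then BodipyFL-lenalidomide probe added (5 nM final; 0.9% DMSO).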"}, "CSK": {"biological_target": "T1, CSK (Homo sapiens, UniProt P41240)", "T1 construct": "EGFP (after a Leu that replaces the STOP codon); expressed in transfected cells; host or cells: HEK293A (Invitrogen R70507), lentiviral transduction", "T1 sequence (P41240 whole entry)": "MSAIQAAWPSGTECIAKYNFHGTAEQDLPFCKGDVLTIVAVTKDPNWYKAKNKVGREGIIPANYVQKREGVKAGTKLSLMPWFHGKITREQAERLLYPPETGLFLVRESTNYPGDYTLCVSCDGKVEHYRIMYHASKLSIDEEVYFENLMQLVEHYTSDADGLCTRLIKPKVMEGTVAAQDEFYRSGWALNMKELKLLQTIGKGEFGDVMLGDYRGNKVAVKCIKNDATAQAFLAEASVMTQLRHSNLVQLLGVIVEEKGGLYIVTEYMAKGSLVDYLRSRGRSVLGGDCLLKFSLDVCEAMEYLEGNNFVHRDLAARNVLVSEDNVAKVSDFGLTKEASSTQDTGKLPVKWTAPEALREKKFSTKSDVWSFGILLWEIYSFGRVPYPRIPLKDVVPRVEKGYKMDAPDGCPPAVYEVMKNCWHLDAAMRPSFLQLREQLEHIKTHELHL", "assay": "CSK-GFP protein abundance flow cytometry assay in HEK293A", "format": "cell-based", "settings": "for CSK Amax: % protein remaining at the concentration of maximum degradation; for DC50: HEK293A CSK-GFP sensor cells, 24 h", "protocol": "(§1) Degradation of BTK, CSK, ABL2, EPHA4 and YES1 was measured in HEK293A cells (Invitrogen R70507) expressing either BTK-GFP and RFP, CSK-GFP and mCherry, GFP-ABL2 and mCherry, EPHA4-GFP and mCherry, or YES1-GFP and mCherry from a stably integrated bicistronic BTK-GFP-iresRFP, CSK-GFP-CHYSEL-mCherry, GFP-ABL2-CHYSEL-mCherry, EPHA4-GFP-CHYSEL-mCherry, or YES1-GFP-CHYSEL-mCherry construct, respectively. Reduction of the GFP signal measured by flow cytometry served as readout for BTK, CSK, ABL2, EPHA4 and YES1 degradation after degrader treatment.\n(§2) 293A BTK-GFP-Ires-RFP, CSK-GFP-CHYSEL-mCherry, GFP-ABL2-CHYSEL-mCherry, EPHA4-GFP-CHYSEL-mCherry, or YES1-GFP-CHYSEL-mCherry sensor cells were generated by lentiviral vector transduction using the pLenti6-BTK-GFP-Ires-RFP, pLenti6-mCherryCHYSEL-EGFP-ABL2, pLenti6-CSK-GFP-CHYSEL-mCherry, pLenti6-EPHA4-GFP-CHYSEL-mCherry or pLenti6-YES1-GFP-CHYSEL-mCherry sensor construct described before. Lentiviral particles were produced in HEK293FT cells (Invitrogen R70007) by co-transfection of 500 ng pLenti6-BTK-GFP-Ires-RFP or pLenti6-IKZF3-GFP-Ires-RFP, 500 ng delta8.71 and 200 ng pVSVG diluted in 100 μL OptiMEM serum free medium (Invitrogen #11058-021) that was mixed after 5 min preincubation with 3 μL of Lipofectamine2000 (Invitrogen #11668-019) in 97 μL OptiMEM serum free medium. The mix was incubated for another 20 min at RT and then added on 1 mL of a freshly prepared suspension of HEK293FT cells in a well of a 6-well plate (concentration 1.2×10^6 cells/mL). 1 day after transfection, the medium was replaced with 1.5 mL of complete growth medium (DMEM high Glucose+10% FCS+1% L-Glutamine+1% NEAA+1% NaPyr.). 48 h post transfection supernatant containing viral transducing particles was collected and frozen at −80° C.\n(§3) 2 days before transduction with viral particles 1×10^5 HEK293A cells (Invitrogen R70507) were seeded in 2 mL growth medium in a well of a 6-well plate. Infection was performed with 90 μL of collected supernatant containing viral transducing particles in 1 mL medium including 8 µg/mL polybrene. 24 h post infection, stably transfected cells were selected with blasticidin at a concentration of 8 μg/mL referred to as stable HEK293A sensor cells.\n(§4) Stable HEK293A sensor cells were maintained in complete growth medium (DMEM high Glucose+10% FCS+1% L-Glutamine+1% NEAA+1% NaPyr.) with passaging performed twice per week. […] GFP and RFP are read in the channels called FITC and PE, respectively.\n(§5) Concentration response curves plotting relative reduction of the GFP signal (measured by flow cytometry) versus 10 compound concentrations (starting concentration 10 μM, 3 fold dilution steps) of the compounds allowed generation of DC50 values."}, "ABL2": {"biological_target": "T2, ABL2 (Homo sapiens, UniProt P42684)", "T2 construct": "expressed in transfected cells; host or cells: HEK293A (Invitrogen R70507), lentiviral transduction", "T2 sequence (P42684 whole entry, looked up)": "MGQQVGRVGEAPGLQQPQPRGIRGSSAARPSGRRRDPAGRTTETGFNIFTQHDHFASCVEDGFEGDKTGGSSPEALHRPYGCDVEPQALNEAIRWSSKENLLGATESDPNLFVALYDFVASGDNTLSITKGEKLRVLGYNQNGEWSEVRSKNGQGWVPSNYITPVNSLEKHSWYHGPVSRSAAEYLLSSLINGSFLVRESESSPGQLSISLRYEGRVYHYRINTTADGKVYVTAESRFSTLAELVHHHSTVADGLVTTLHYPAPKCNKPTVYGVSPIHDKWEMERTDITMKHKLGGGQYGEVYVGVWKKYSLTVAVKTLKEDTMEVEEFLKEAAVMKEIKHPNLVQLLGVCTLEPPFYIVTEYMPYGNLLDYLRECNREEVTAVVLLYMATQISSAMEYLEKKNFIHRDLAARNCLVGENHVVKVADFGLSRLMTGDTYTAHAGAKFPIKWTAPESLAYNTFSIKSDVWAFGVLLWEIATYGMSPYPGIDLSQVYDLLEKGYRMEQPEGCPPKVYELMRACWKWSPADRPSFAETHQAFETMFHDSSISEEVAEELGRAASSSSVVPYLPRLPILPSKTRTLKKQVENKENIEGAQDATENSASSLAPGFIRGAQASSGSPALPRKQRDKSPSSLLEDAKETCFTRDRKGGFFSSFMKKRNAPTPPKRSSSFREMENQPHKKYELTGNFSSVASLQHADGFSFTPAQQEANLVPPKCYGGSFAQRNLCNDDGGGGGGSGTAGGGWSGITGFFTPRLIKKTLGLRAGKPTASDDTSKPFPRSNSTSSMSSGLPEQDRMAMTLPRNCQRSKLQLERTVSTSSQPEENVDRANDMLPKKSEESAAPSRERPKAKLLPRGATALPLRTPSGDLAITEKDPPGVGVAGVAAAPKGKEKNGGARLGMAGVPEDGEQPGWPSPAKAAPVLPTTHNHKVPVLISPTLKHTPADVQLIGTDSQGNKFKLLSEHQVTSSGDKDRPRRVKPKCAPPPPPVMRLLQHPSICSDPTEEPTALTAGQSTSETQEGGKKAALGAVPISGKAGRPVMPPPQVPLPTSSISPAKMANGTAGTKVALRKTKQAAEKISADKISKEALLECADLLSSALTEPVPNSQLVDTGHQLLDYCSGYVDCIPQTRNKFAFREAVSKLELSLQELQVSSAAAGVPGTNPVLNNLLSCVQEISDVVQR", "assay": "GFP-ABL2 protein abundance flow cytometry assay in HEK293A", "format": "cell-based", "settings": "for ABL2 Amax: % protein remaining at the concentration of maximum degradation; for DC50: HEK293A GFP-ABL2 sensor cells, 24 h", "protocol": "as §1, §2, §3, §4, §5"}, "YES1": {"biological_target": "T3, YES1 (Homo sapiens, UniProt P07947)", "T3 construct": "EGFP (after a Leu that replaces the STOP codon); expressed in transfected cells; host or cells: HEK293A (Invitrogen R70507), lentiviral transduction", "T3 sequence (P07947 whole entry, looked up)": "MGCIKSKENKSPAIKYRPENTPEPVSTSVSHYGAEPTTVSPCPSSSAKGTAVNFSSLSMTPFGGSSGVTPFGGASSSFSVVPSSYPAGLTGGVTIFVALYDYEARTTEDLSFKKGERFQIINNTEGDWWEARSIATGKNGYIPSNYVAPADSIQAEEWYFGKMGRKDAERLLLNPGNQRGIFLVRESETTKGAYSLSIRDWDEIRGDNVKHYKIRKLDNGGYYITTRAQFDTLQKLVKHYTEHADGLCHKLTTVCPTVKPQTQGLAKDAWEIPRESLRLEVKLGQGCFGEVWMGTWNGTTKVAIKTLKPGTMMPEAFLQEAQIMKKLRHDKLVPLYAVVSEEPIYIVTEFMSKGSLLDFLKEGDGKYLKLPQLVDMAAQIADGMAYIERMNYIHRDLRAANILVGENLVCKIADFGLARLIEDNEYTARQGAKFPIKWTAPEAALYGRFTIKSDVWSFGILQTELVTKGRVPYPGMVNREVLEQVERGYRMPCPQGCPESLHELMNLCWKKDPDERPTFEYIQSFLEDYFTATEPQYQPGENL", "assay": "YES1-GFP protein abundance flow cytometry assay in HEK293A", "format": "cell-based", "settings": "for YES1 Amax: % protein remaining at the concentration of maximum degradation; for DC50: HEK293A YES1-GFP sensor cells, 24 h", "protocol": "as §1, §2, §3, §4, §5"}},
  "data": [
    {"smiles": "COc1ccc(C(=O)N2CCC3(CCN(C(=O)CCCCCCCN4CCN(c5cc(Nc6ncc(C(=O)Nc7c(C)cccc7Cl)s6)nc(C)n5)CC4)CC3)CC2)cc1N1CCC(=O)NC1=O", "note": "[compound 06, N-(2-chloro-6-methylphenyl)-2-((6-(4-(8-(9-(3-(2,4-dioxotetrahydropyrimidin-1(2H)-yl)-4-methoxybenzoyl)-3,9-diazaspiro[5.5]undecan-3-yl)-8-oxooctyl)piperazin-1-yl)-2-methylpyrimidin-4-yl)amino)thiazole-5-carboxamide]", "values": [
      {"measurement": "AC50", "setting": "CRBN", "value": 162, "unit": "nM"},
      {"measurement": "CSK Amax", "setting": "CSK", "value": 4, "unit": "%"},
      {"measurement": "DC50", "setting": "CSK", "value": 4, "unit": "nM"},
      {"measurement": "ABL2 Amax", "setting": "ABL2", "value": 22, "unit": "%"},
      {"measurement": "DC50", "setting": "ABL2", "value": 2, "unit": "nM"},
      {"measurement": "YES1 Amax", "setting": "YES1", "value": 4, "unit": "%"},
      {"measurement": "DC50", "setting": "YES1", "value": 9, "unit": "nM"}
    ]},
    {"smiles": "COc1ccc(C(=O)N2CCC3(CCN(C(=O)CN4CCN(c5cc(Nc6ncc(C(=O)Nc7c(C)cccc7Cl)s6)nc(C)n5)CC4)CC3)CC2)cc1N1CCC(=O)NC1=O", "note": "[compound 07, N-(2-chloro-6-methylphenyl)-2-((6-(4-(2-(9-(3-(2,4-dioxotetrahydropyrimidin-1(2H)-yl)-4-methoxybenzoyl)-3,9-diazaspiro[5.5]undecan-3-yl)-2-oxoethyl)piperazin-1-yl)-2-methylpyrimidin-4-yl)amino)thiazole-5-carboxamide]", "values": [
      {"measurement": "AC50", "setting": "CRBN", "value": 496, "unit": "nM"},
      {"measurement": "CSK Amax", "setting": "CSK", "value": 1, "unit": "%"},
      {"measurement": "DC50", "setting": "CSK", "value": 23, "unit": "nM"},
      {"measurement": "ABL2 Amax", "setting": "ABL2", "value": 27, "unit": "%"},
      {"measurement": "DC50", "setting": "ABL2", "value": 63, "unit": "nM"},
      {"measurement": "YES1 Amax", "setting": "YES1", "value": 11, "unit": "%"},
      {"measurement": "DC50", "setting": "YES1", "value": 124, "unit": "nM"}
    ]}
  ]
}
